Measurements published in US7993681B2, “Methods, compositions and devices for inducing stasis in tissues and organs” (Fred Hutchinson Cancer Research Center, priority 2003, dated 2011).

Legend:
C. elegans embryos = assay: Viability of nematodes in carbon monoxide based atmospheres; assay type: in vivo; conditions: for Viability to adulthood: 0.25 kPa O2/CO, 24 hrs
Description: To achieve specific atmospheric conditions the following apparatus was used: a glass syringe barrel having a tip with a locking device such as a LUER-LOK with the large opening of the barrel sealed with a custom-machined steel and rubber fitting to make an airtight seal was locked to via locking device to the inlet port of an environmental chamber having an inlet and an outlet port each fitted with a locking devices such as a LUER-LOK fitting. A defined gas was humidified and provided to the environmental chamber by first venting the gas from a compressed tank (Byrne Specialty Gas, Seattle, Wash.) through a gas washing bottle (500 ml Kimex) filled with double distilled water. The gas washing bottle was connected to the environmental chamber past a gas-flow meter. A gas flow meter was used to provide a regulated 70 cc/min flow through the environmental chamber throughout the 24 hr incubation.
To test whether induced, reversible stasis could be achieved in C. elegans nematodes, 2-cell C. elegans embryos, L3 larvae or adult nematodes were collected and exposed to either an environment of effectively 100% CO, an environment of 100% N2, an environment comprising 500 ppm oxygen balanced with carbon monoxide, or to environments comprising 100, 500 or 1000 ppm oxygen balanced with nitrogen at room temperature. Nematodes were visualized using differential interference contrast microscopy (also known as Nomarski optics). Images were collected and analyzed using NIH image and Adobe Photoshop 5.5. Embryos are approximately 50 μm in length.
Environmental chambers and apparatuses. Oxygen deprivation experiments were carried out using a custom atmospheric chamber designed by W. Van Voorhies (Van Voorhies et al., 2000). The chamber is a 30 mL glass syringe (Fisher #14-825-10B) fitted with a custom steel stopper that is lined with two viton o-rings to ensure a tight seal. The stopper is bored through and has a steel lure lock on the exterior face so that a hose carrying compressed gas can be attached. A defined gas mixture is delivered to the chamber at a constant pressure and flow rate from compressed tanks by passing first through a rotometer (Aalborg, flow-tube number 032-41ST) or mass flow controller (Sierra Instruments #810) to monitor flow rate and then through a 500 ml gas washing bottle (Fisher #K28220-5001) containing 250 ml water to hydrate the gas. ¼″ OD nylon (Cole-Parmer #P-06489-06) or FEP (Cole-Parmer #A-06450-05) tubing was used and connections between tubing and the regulators and between the tubing and the rotometers were made with brass John-Guest-type fittings (Byrne Gas). All other connections were made with either microflow quick-connect fittings (Cole-Parmer #A-06363-57, #A-06363-52) or standard lure fittings (Cole-Parmer #A-06359-37, #A-06359-17).
Viability of nematodes in carbon monoxide based atmospheres. 30-60 embryos were harvested from continuously maintained Bristol N2 and hif-2(ia04) strains as described above. Environmental chambers were continuously perfused at room temperature with pure CO (grade CP) or 500 ppm O2/CO at 70 cc/min for 24 hrs. To achieve 2500 ppm O2/CO or 2500 ppm O2/N2, 5000 ppm O2/N2 was mixed at a 1:1 ratio with either pure CO or pure N2 using two mass flow controllers (Sierra Instruments 810) to precisely monitor flow. Each gas was delivered into a 3-way valve (Cole-Parmer #A-30600-23) at 50 cc/min and the resulting mixture was then passed through a gas washing bottle and into an environmental chamber throughout the 24 hour exposure. All gases were supplied by Byrne Gas (Seattle, Wash.). The 500 ppm O2/CO mixture was certified to 2% of the oxygen content and contained 7000 ppm N2 to ensure a consistent O2/CO ratio throughout the use of the tank.
Cell biological analysis. […]

human keratinocytes = assay: Preservation of human skin in carbon monoxide, keratinocyte colony formation; assay type: cell-based
Description: Three human foreskins were obtained for this purpose. The foreskin tissue was preserved in keratinocyte growth medium (KGM) containing insulin, EGF (0.1 ng/ml), hydrocortisone ([…]) and bovine pituitary extract (approx. 50 micrograms/ml of protein). Foreskins were rinsed in PBS, and excess fatty tissue was removed. Each foreskin sample was divided into 2 equal pieces. Each piece was placed into a separate container containing a solution of PBS with 24 mg/ml of Dispase II (from Bacillus Polymyxa EC 3.4.24.4:Roche Diagnostics Corp., Indianapolis, Ind.). One container (containing a foreskin piece in PBS with Dispase II) was kept in a humid chamber in a fume hood. The other container (with the other half of the foreskin in PBS with Dispase II) was placed in the same fume hood in an environmental chamber perfused with humidified 100% CO. Both samples were maintained at room temperature for 24 hrs. Methods used to establish defined atmospheric conditions were identical to those used in Example 1.
Following the 24 hr exposure to normoxia or 100% CO, keratinocytes were isolated from the foreskins according to the method described by Boyce et al. (1983; 1985; each of which is incorporated herein by reference in its entirety). Briefly, the epidermis from each foreskin sample was removed to a fresh dish containing PBS. The epidermis was minced and homogenized prior to incubation in 3 ml of 0.05% Trypsin, 1 mM EDTA for 5 minutes, at room temperature, to separate basal cells from the epidermis. After incubation, 6 ml of 400 μg/ml (micrograms per ml) Soybean Trypsin Inhibitor, 1 mg/ml BSA was added and the samples were centrifuged at 900 RPM. The supernatant from each sample was discarded and the sample pellets were resuspended in 10 ml of KGM. Each sample was split into two 10 cm plates each of which contained 5 ml KGM and 100 μl of HEPES pH 7.3 (N-2-hydroxyethylpiperazine-N′-2-ethane sulfonic acid). The plates were incubated in a 37° C. incubator perfused with 95% room air, 5% carbon dioxide for five days.
Cells were inspected visually using an inverted phase contrast microscope. […] Quantitation of the number of viable keratinocytes as judged by colony formation was quantified for two of the three foreskins.

humans [1] = conditions: around 1000 ppm, more than around 1-2 minutes; cited from earlier work
rats = conditions: cited from earlier work
mice [2] = assay: Respirometry of mice exposed to H2S; assay type: in vivo, mouse
Description: (§1) Exposure of Mice to Regulated Atmosphere.
Measurements were over a period of 15 minutes, with the mice in a 0.5 L sealed environmental chamber with flow rates of 500 cc/min. Consumption of oxygen is obtained by subtracting the oxygen concentration when the mouse is present, from the control when the mouse is absent. Likewise, production of carbon dioxide is obtained by subtracting the carbon dioxide concentration when the mouse is present from the control when the mouse is absent. RQ stands for respiratory quotient, and is equal to the ratio of carbon dioxide produced to oxygen […]. […] The change in the respiratory quotient reflects the disparity oxygen consumption and carbon dioxide production by the mice in the presence or absence of the H2S.

mice [3] = conditions: SHIRPA tests before and after exposure
mice [4] = assay: Core body temperature, heart rate and movement of mice exposed to H2S (telemetry); assay type: in vivo, mouse
Description: Implantation of telemetry devices.
as §1
Regulation of Ambient Temperature. […] Mice were exposed to regulated atmosphere as described above.

humans [5] = conditions: cited from earlier work
mice [6] = conditions: 80 ppm, cited from earlier work
[7] = 80 ppm, 15 minutes, 0.5 L chamber, 500 cc/min
[8] = warming phase after 80 ppm, cabinet 10.5° C.

[C-]#[O+] [CO, Carbon monoxide]
embryogenesis during exposure (C. elegans embryos; 0.05 kPa O2 balanced with carbon monoxide): arrested embryogenesis | Viability to adulthood (C. elegans embryos; hif-1(ia04) embryos): 83.9% ± 13.8 | Viability to adulthood (C. elegans embryos; wild-type (N2 strain) embryos): 78.7% | lethality and suspended animation (C. elegans embryos; 100% carbon monoxide, 24 hr, room temperature, nematodes): not lethal and induced reversible suspended animation | progression through embryogenesis during exposure (C. elegans embryos; 101 kPa CO): did not progress through embryogenesis | suspended animation and survival (C. elegans embryos; 500 ppm oxygen balanced with carbon monoxide, 24 hr): entered into suspended animation and survived | skin cell survival in CO versus room air (human keratinocytes; 100% CO, 24 hrs, human skin): 100 fold | Total colonies (human keratinocytes; Foreskin 1, 100% CO 24 hr): 542 colonies (many of which | Total colonies (human keratinocytes; Foreskin 2, 100% CO 24 hr): 780 colonies (many of which | growth of keratinocyte populations (human keratinocytes; foreskin 24 hr in 100% CO at room temperature, then five days culture, three foreskins): significant growth | lethality (humans [1]): can expire

S [H2S, Hydrogen sulfide]
perinatal neurotoxicity (rats; 20 or 50 ppm, 7 hours per day, gestation through post-natal day 21, rats): longer dendritic branches with reduced aborization of cerebellar Purkinje cells | adverse effects incl. gross and histopathological examination (rats; 80 ppm, 6 hrs per day, 5 days per week, 90 days, rats): no observed adverse effect | perinatal study, neuropathology and behavior of rat pups (rats; 80 ppm): no neuropathological effects | discriminated avoidance responses (rats; moderate levels, immediately after end of exposure, rats): inhibits discriminated avoidance responses | radial arm maze learning (rats; moderate levels, rats): interferes with the ability of rats to learn a baited radial arm maze task | decrease in CO2 production (mice [2]; 80 ppm (FIG. 4A)): approximately 3 fold | time to decrease in CO2 production / new baseline (mice [2]; 80 ppm (FIG. 4A)): approximately 5 minutes | drop in carbon dioxide production (mice [2]; [7]): 3-4 fold | drop in oxygen consumption (mice [2]; [7]): 2-3 fold | decrease in cellular respiration (mice [2]; 80 ppm, core temperature 15° C.): 1-20 fold | RQ (mice [2]; H2S present (80 ppm)): 0.58 | Consumption of oxygen (mice [2]; H2S present (80 ppm), control minus mouse present): 1300 ppm | [CO2] ppm (mice [2]; mouse present, H2S present (80 ppm)): 750 ppm | behavioral differences after gas exposure (mice [3]): no detectable behavioral differences | core temperature (mice [4]; 80 ppm, 90 min, incubator lowered to 18° C., first mouse): 28.6 °C | heart rate (mice [4]; 80 ppm, 3 hrs, dropped from 600 bpm): 250 bpm | core temperature (mice [4]; 80 ppm, 3 hrs, incubator 18° C., second mouse): 18.6 °C | recovery after rewarming in room air (mice [4]; 80 ppm, 6 hrs, seven mice): successfully recovered | lowest average core body temperature (mice [4]; 80 ppm, 6 hrs, seven mice, ambient temperature 13° C.): 15 °C | lowest core body temperature recorded (mice [4]; 80 ppm, ambient dropped to less than 10° C. (FIG. 7)): 10.7 °C | time to recover activity after removal from gassing chamber (mice [4]; 80 ppm, cabinet 10° C., non-telemetry mouse): approximately 90 min | core temperature (estimation from slope of the drop) (mice [4]; 80 ppm, cabinet 10° C., telemetry mouse, electronics failed at 15.3° C.): approximately 12.5 °C | core body temperature (mice [4]; 80 ppm, cabinet 10.5° C., approximately six hours): 10.5 °C | time to return to normal range of core temperature and activity (mice [4]; after 90 min at 80 ppm, chamber perfused with room air): ≤ 60 min | behavior of the animals after exposure (mice [4]; maintained for 4 weeks after 6 hr at 80 ppm, 15° C.): no apparent change in the behavior | core body temperature at which normal movement and respiration were fully apparent (mice [4]; [8]): 25 °C | core body temperature at which weak respiration was observed (mice [4]; [8]): 14 °C | acute effect of a single breath (humans [5]; atmosphere with 0.1% hydrogen sulfide): immediately collapse | OSHA limit for humans (humans [5]): 10 ppm | acute effect of exposure (humans [5]; extreme levels (500 ppm)): sudden collapse and unconsciousness | adverse effects incl. gross and histopathological examination (mice [6]; 6 hrs per day, 5 days per week, 90 days): no observed adverse effect | tolerability (mice [6]; exposures lasting up to ten weeks): innocuous
